Test results: patent US20260042731A1, “(2,4-DICHLOROPHENOXY)ACETIC ACID ANALOGS” (CORTEVA AGRISCIENCE LLC, priority 2022, published 2026)
Like-named read-outs stand apart in the source and are kept apart here.

Legend:
[1] = system: Abutilon theophrasti (ABUTH), velvetleaf; test: Postemergence herbicide evaluation, growth of Abutilon theophrasti (ABUTH); assay type: in vivo; settings: Abutilon theophrasti, post-emergence, read-out: AVE. ABUTH, percent reduction in plant size relative to the untreated control; for pest or weed control at 280 g/ha: 280 g ae/ha; for pest or weed control at 560 g/ha: 560 g ae/ha
[2] = system: Chenopodium album (CHEAL), common lambsquarters; test: Postemergence herbicide evaluation, growth of Chenopodium album (CHEAL); assay type: in vivo; settings: Chenopodium album, post-emergence, read-out: Ave. CHEAL, percent reduction in plant size relative to the untreated control; for pest or weed control at 280 g/ha: 280 g ae/ha; for pest or weed control at 560 g/ha: 560 g ae/ha
[3] = system: glyphosate resistant Conyza canadensis (L.) (ERICA), horseweed; test: Postemergence herbicide evaluation, growth of Conyza canadensis (ERICA); assay type: in vivo; settings: Erigeron canadensis, post-emergence, read-out: Ave. ERICA, percent reduction in plant size relative to the untreated control; for pest or weed control at 280 g/ha: 280 g ae/ha; for pest or weed control at 560 g/ha: 560 g ae/ha
[4] = system: weeds ABUTH, AMATA, AMBEL, CHEAL, ERICA; test: Postemergence herbicide evaluation, overall average % weed control (ABUTH, AMATA, AMBEL, CHEAL, ERICA); assay type: in vivo; settings: post-emergence, read-out: Overall Ave % Weed Control; for pest or weed control at 280 g/ha: 280 g ae/ha; for pest or weed control at 560 g/ha: 560 g ae/ha
[5] = system: Ambrosia artemisiifolia (AMBEL), common ragweed; test: Postemergence herbicide evaluation, growth of Ambrosia artemisiifolia (AMBEL); assay type: in vivo; settings: Ambrosia artemisiifolia, post-emergence, read-out: AVE. AMBEL, percent reduction in plant size relative to the untreated control; for pest or weed control at 280 g/ha: 280 g ae/ha; for pest or weed control at 560 g/ha: 560 g ae/ha
[6] = Volatility of compounds measured by thermogravimetric analysis (TGA); assay type: physicochemical; settings: value marked *: decomposition of the material was observed
[7] = system: Amaranthus rudis (AMATA), tall water hemp; test: Postemergence herbicide evaluation, growth of Amaranthus rudis (AMATA); assay type: in vivo; settings: Amaranthus tuberculatus, post-emergence, read-out: Ave. AMATA, percent reduction in plant size relative to the untreated control; for pest or weed control at 280 g/ha: 280 g ae/ha; for pest or weed control at 560 g/ha: 560 g ae/ha

SMILES | pest or weed control at 280 g/ha ([1]; 168 h, 7 DAA) [%] | pest or weed control at 560 g/ha ([1]; 168 h, 7 DAA) [%] | pest or weed control at 280 g/ha ([1]; 336 h, 14 DAA) [%] | pest or weed control at 560 g/ha ([1]; 336 h, 14 DAA) [%] | pest or weed control at 280 g/ha ([1]; 504 h, 21 DAA) [%] | pest or weed control at 560 g/ha ([1]; 504 h, 21 DAA) [%] | pest or weed control at 280 g/ha ([2]; 168 h, 7 DAA) [%] | pest or weed control at 560 g/ha ([2]; 168 h, 7 DAA) [%] | pest or weed control at 280 g/ha ([2]; 336 h, 14 DAA) [%] | pest or weed control at 560 g/ha ([2]; 336 h, 14 DAA) [%] | pest or weed control at 280 g/ha ([2]; 504 h, 21 DAA) [%] | pest or weed control at 560 g/ha ([2]; 504 h, 21 DAA) [%] | pest or weed control at 280 g/ha ([3]; 168 h, 7 DAA) [%] | pest or weed control at 560 g/ha ([3]; 168 h, 7 DAA) [%] | pest or weed control at 280 g/ha ([3]; 336 h, 14 DAA) [%] | pest or weed control at 560 g/ha ([3]; 336 h, 14 DAA) [%] | pest or weed control at 280 g/ha ([3]; 504 h, 21 DAA) [%] | pest or weed control at 560 g/ha ([3]; 504 h, 21 DAA) [%] | pest or weed control at 280 g/ha ([4]; 168 h, 7 DAA) [%] | pest or weed control at 560 g/ha ([4]; 168 h, 7 DAA) [%] | also measured
C/C(=N\OC(=O)COc1ccc(Cl)cc1Cl)c1cccnc1 [Compound A26] | 62.5 | 67.5 | 72.5 | 92.5 | 96 | 100 | 72.5 | 80 | 97.5 | 95 | 87.5 | 95 | 80 | 82.5 | 99 | 99.5 | 100 | 100 | 72 | 80.3 | pest or weed control at 280 g/ha ([4]; 336 h, 14 DAA): 85.3%; pest or weed control at 560 g/ha ([4]; 336 h, 14 DAA): 93.4%; pest or weed control at 280 g/ha ([4]; 504 h, 21 DAA): 90.2%; pest or weed control at 560 g/ha ([4]; 504 h, 21 DAA): 97.5%; pest or weed control at 280 g/ha ([5]; 168 h, 7 DAA): 80%; pest or weed control at 560 g/ha ([5]; 168 h, 7 DAA): 77.5%; pest or weed control at 280 g/ha ([5]; 336 h, 14 DAA): 72.5%; pest or weed control at 560 g/ha ([5]; 336 h, 14 DAA): 90%; pest or weed control at 280 g/ha ([5]; 504 h, 21 DAA): 100%; pest or weed control at 560 g/ha ([5]; 504 h, 21 DAA): 100%; TGA Data (rate of weight loss, volatility) [6]: 1.599* μg/min; pest or weed control at 280 g/ha ([7]; 168 h, 7 DAA): 65%; pest or weed control at 560 g/ha ([7]; 168 h, 7 DAA): 94%; pest or weed control at 280 g/ha ([7]; 336 h, 14 DAA): 85%; pest or weed control at 560 g/ha ([7]; 336 h, 14 DAA): 90%; pest or weed control at 280 g/ha ([7]; 504 h, 21 DAA): 67.5%; pest or weed control at 560 g/ha ([7]; 504 h, 21 DAA): 92.5%
C/C(=N\OC(=O)COc1ccc(Cl)cc1Cl)c1ccncc1 [Compound A27] | 60 | 82.5 | 75 | 98.5 | 92.5 | 100 | 77.5 | 85 | 98 | 94.5 | 98.5 | 100 | 85 | 82.5 | 100 | 100 | 98.5 | 97.5 | 75.5 | 85 | pest or weed control at 280 g/ha ([4]; 336 h, 14 DAA): 87.6%; pest or weed control at 560 g/ha ([4]; 336 h, 14 DAA): 94.3%; pest or weed control at 280 g/ha ([4]; 504 h, 21 DAA): 90.4%; pest or weed control at 560 g/ha ([4]; 504 h, 21 DAA): 95%; pest or weed control at 280 g/ha ([5]; 168 h, 7 DAA): 80%; pest or weed control at 560 g/ha ([5]; 168 h, 7 DAA): 90%; pest or weed control at 280 g/ha ([5]; 336 h, 14 DAA): 75%; pest or weed control at 560 g/ha ([5]; 336 h, 14 DAA): 82.5%; pest or weed control at 280 g/ha ([5]; 504 h, 21 DAA): 100%; pest or weed control at 560 g/ha ([5]; 504 h, 21 DAA): 100%; TGA Data (rate of weight loss, volatility) [6]: 1.27* μg/min; pest or weed control at 280 g/ha ([7]; 168 h, 7 DAA): 75%; pest or weed control at 560 g/ha ([7]; 168 h, 7 DAA): 85%; pest or weed control at 280 g/ha ([7]; 336 h, 14 DAA): 90%; pest or weed control at 560 g/ha ([7]; 336 h, 14 DAA): 96%; pest or weed control at 280 g/ha ([7]; 504 h, 21 DAA): 62.5%; pest or weed control at 560 g/ha ([7]; 504 h, 21 DAA): 77.5%
